Measurements: the supplement of paper PMC10307832

Key:
Test in all cases: relative viability (nuclei count vs DMSO), 5 days (fraction); higher = more cells survive
BEN = test system: BEN
Summary of the method: (§1)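 The day after seeding in 1536-well plates, lung cancer cell lines were treated by pin tool with a single drug, or with a fixed anchor-drug dose together with five library-drug doses (not always all listed) in √10 steps. After 5 days, a combined fix-and-stain solution (final 0.05% Triton X-100, 1% formaldehyde, 1 ug/ml Hoechst) was added. Nuclei counted on 4× images gave relative viability as treated counts over vehicle counts, reported as the median of duplicate plates.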

CAL-12T = test system: CAL-12T
Summary of the method: as §1

COR-L23 = test system: COR-L23
Summary of the method: as §1

HCC-366 = test system: HCC-366
Summary of the method: as §1

LOU-NH91 = test system: LOU-NH91
Summary of the method: as §1

LU99A = test system: LU99A
Summary of the method: as §1

NCI-H1355 = test system: NCI-H1355
Summary of the method: as §1

NCI-H1437 = test system: NCI-H1437
Summary of the method: as §1

NCI-H1563 = test system: NCI-H1563
Summary of the method: as §1

NCI-H1650 = test system: NCI-H1650
Summary of the method: as §1

NCI-H1651 = test system: NCI-H1651
Summary of the method: as §1

NCI-H1734 = test system: NCI-H1734
Summary of the method: as §1

NCI-H1793 = test system: NCI-H1793
Summary of the method: as §1

NCI-H1975 = test system: NCI-H1975
Summary of the method: as §1

NCI-H2023 = test system: NCI-H2023
Summary of the method: as §1

NCI-H2085 = test system: NCI-H2085
Summary of the method: as §1

NCI-H358 = test system: NCI-H358
Summary of the method: as §1

NCI-H460 = test system: NCI-H460
Summary of the method: as §1

NCI-H838 = test system: NCI-H838
Summary of the method: as §1

SK-LU-1 = test system: SK-LU-1
Summary of the method: as §1

Structure (SMILES): CC(=O)O[C@@]12CO[C@@H]1C[C@H](O)[C@@]1(C)C(=O)[C@H](O)C3=C(C)[C@@H](OC(=O)[C@H](O)[C@@H](NC(=O)OC(C)(C)C)c4ccccc4)C[C@@](O)([C@@H](OC(=O)c4ccccc4)[C@H]21)C3(C)C [Docetaxel] + CS(=O)(=O)CCNCc1ccc(-c2ccc3ncnc(Nc4ccc(OCc5cccc(F)c5)c(Cl)c4)c3c2)o1 [Lapatinib] (partner 2 µM)
- relative viability (BEN; first compound 0.0002 µM): 0.582
- relative viability (BEN; first compound 0.000632 µM): 0.549
- relative viability (BEN; first compound 0.002 µM): 0.233
- relative viability (BEN; first compound 0.006325 µM): 0.203
- relative viability (BEN; first compound 0.02 µM): 0.176
- relative viability (CAL-12T; first compound 0.0002 µM): 0.757
- relative viability (CAL-12T; first compound 0.000632 µM): 0.496
- relative viability (CAL-12T; first compound 0.002 µM): 0.277
- relative viability (CAL-12T; first compound 0.006325 µM): 0.25
- relative viability (COR-L23; first compound 0.0002 µM): 0.993
- relative viability (COR-L23; first compound 0.000632 µM): 0.843
- relative viability (COR-L23; first compound 0.002 µM): 0.625
- relative viability (COR-L23; first compound 0.006325 µM): 0.14
- relative viability (COR-L23; first compound 0.02 µM): 0.107
- relative viability (HCC-366; first compound 0.0002 µM): 0.938
- relative viability (HCC-366; first compound 0.000632 µM): 0.054
- relative viability (HCC-366; first compound 0.002 µM): 0.0282
- relative viability (HCC-366; first compound 0.006325 µM): 0.0194
- relative viability (HCC-366; first compound 0.02 µM): 0.011
- relative viability (LOU-NH91; first compound 0.0002 µM): 0.715
- relative viability (LOU-NH91; first compound 0.000632 µM): 0.589
- relative viability (LOU-NH91; first compound 0.002 µM): 0.462
- relative viability (LOU-NH91; first compound 0.006325 µM): 0.361
- relative viability (LOU-NH91; first compound 0.02 µM): 0.351
- relative viability (LU99A; first compound 0.0002 µM): 0.799
- relative viability (LU99A; first compound 0.000632 µM): 0.424
- relative viability (LU99A; first compound 0.002 µM): 0.423
- relative viability (LU99A; first compound 0.006325 µM): 0.255
- relative viability (LU99A; first compound 0.02 µM): 0.188
- relative viability (NCI-H1355; first compound 0.0002 µM): 0.933
- relative viability (NCI-H1355; first compound 0.000632 µM): 0.975
- relative viability (NCI-H1355; first compound 0.002 µM): 0.446
- relative viability (NCI-H1355; first compound 0.006325 µM): 0.289
- relative viability (NCI-H1355; first compound 0.02 µM): 0.21
- relative viability (NCI-H1437; first compound 0.0002 µM): 0.663
- relative viability (NCI-H1437; first compound 0.000632 µM): 0.508
- relative viability (NCI-H1437; first compound 0.002 µM): 0.185
- relative viability (NCI-H1437; first compound 0.006325 µM): 0.12
- relative viability (NCI-H1437; first compound 0.02 µM): 0.089
- relative viability (NCI-H1563; first compound 0.0002 µM): 0.969
- relative viability (NCI-H1563; first compound 0.000632 µM): 1.01
- relative viability (NCI-H1563; first compound 0.002 µM): 0.971
- relative viability (NCI-H1563; first compound 0.006325 µM): 0.747
- relative viability (NCI-H1563; first compound 0.02 µM): 0.581
- relative viability (NCI-H1650; first compound 0.0002 µM): 0.721
- relative viability (NCI-H1650; first compound 0.000632 µM): 0.322
- relative viability (NCI-H1650; first compound 0.006325 µM): 0.153
- relative viability (NCI-H1650; first compound 0.02 µM): 0.152
- relative viability (NCI-H1651; first compound 0.0002 µM): 0.724
- relative viability (NCI-H1651; first compound 0.000632 µM): 0.496
- relative viability (NCI-H1651; first compound 0.002 µM): 0.161
- relative viability (NCI-H1651; first compound 0.006325 µM): 0.11
- relative viability (NCI-H1651; first compound 0.02 µM): 0.101
- relative viability (NCI-H1734; first compound 0.0002 µM): 0.986
- relative viability (NCI-H1734; first compound 0.000632 µM): 0.549
- relative viability (NCI-H1734; first compound 0.002 µM): 0.429
- relative viability (NCI-H1734; first compound 0.006325 µM): 0.322
- relative viability (NCI-H1734; first compound 0.02 µM): 0.221
- relative viability (NCI-H1793; first compound 0.0002 µM): 0.569
- relative viability (NCI-H1793; first compound 0.000632 µM): 0.618
- relative viability (NCI-H1793; first compound 0.006325 µM): 0.315
- relative viability (NCI-H1793; first compound 0.02 µM): 0.216
- relative viability (NCI-H1975; first compound 0.0002 µM): 0.884
- relative viability (NCI-H1975; first compound 0.000632 µM): 0.449
- relative viability (NCI-H1975; first compound 0.002 µM): 0.268
- relative viability (NCI-H1975; first compound 0.006325 µM): 0.175
- relative viability (NCI-H1975; first compound 0.02 µM): 0.142
- relative viability (NCI-H2023; first compound 0.0002 µM): 0.722
- relative viability (NCI-H2023; first compound 0.000632 µM): 0.408
- relative viability (NCI-H2023; first compound 0.002 µM): 0.135
- relative viability (NCI-H2023; first compound 0.006325 µM): 0.1
- relative viability (NCI-H2023; first compound 0.02 µM): 0.0578
- relative viability (NCI-H2085; first compound 0.0002 µM): 0.787
- relative viability (NCI-H2085; first compound 0.000632 µM): 0.71
- relative viability (NCI-H2085; first compound 0.002 µM): 0.507
- relative viability (NCI-H2085; first compound 0.006325 µM): 0.462
- relative viability (NCI-H2085; first compound 0.02 µM): 0.342
- relative viability (NCI-H358; first compound 0.0002 µM): 0.426
- relative viability (NCI-H358; first compound 0.000632 µM): 0.357
- relative viability (NCI-H358; first compound 0.002 µM): 0.332
- relative viability (NCI-H358; first compound 0.02 µM): 0.149
- relative viability (NCI-H460; first compound 0.0002 µM): 0.665
- relative viability (NCI-H460; first compound 0.000632 µM): 0.163
- relative viability (NCI-H460; first compound 0.002 µM): 0.0209
- relative viability (NCI-H460; first compound 0.006325 µM): 0.0147
- relative viability (NCI-H460; first compound 0.02 µM): 0.0097
- relative viability (NCI-H838; first compound 0.0002 µM): 0.963
- relative viability (NCI-H838; first compound 0.000632 µM): 0.63
- relative viability (NCI-H838; first compound 0.002 µM): 0.259
- relative viability (NCI-H838; first compound 0.006325 µM): 0.15
- relative viability (NCI-H838; first compound 0.02 µM): 0.106
- relative viability (SK-LU-1; first compound 0.0002 µM): 0.581
- relative viability (SK-LU-1; first compound 0.000632 µM): 0.436
- relative viability (SK-LU-1; first compound 0.002 µM): 0.338
- relative viability (SK-LU-1; first compound 0.006325 µM): 0.222
- relative viability (SK-LU-1; first compound 0.02 µM): 0.233
